Key:
[1] = tested on: MMP-2-specific CD4^+ T cells; assay: Screen of overlapping MMP-2 peptides for recognition by CD4+ T cell clones; format: cell-based, human; conditions: 20-mer peptides of MMP-2
Text: By way of background, the present inventors used a pool of sixty-six 20-amino acid long, partially overlapping peptides spanning the entire sequence of MMP-2 (SEQ ID NO: 1) to screen for the presence of MMP-2-specific CD4^+ T cells and identify the specific MMP-2 epitopes for which these clones were specific. See, for example, FIG. 6. Using this method, CD4^+ T cell clones specific for eleven distinct and novel MMP-2-derived peptides/epitopes were generated. An empirical approach to determining which, if any, of the potential MMP-2 peptides could induce MMP-2-specific CD4^+ T cells was necessitated because of the nature and complexity of antigen processing and presentation by antigen presenting cells [APCs; e.g., monocyte-derived dendritic cells (DCs)] and the additional complexities involved in T cell recognition of presented antigen, which are influenced by, for example, the presence and/or concentration of particular cytokines that are instructive for divergent T cell differentiation pathways.
Peripheral blood mononuclear cells (PBMCs) can be purified from healthy donor- (HD) or cord blood donor- (CB) derived buffy coats (New York Blood Center) by Ficoll-Paque Plus (GE Healthcare) centrifugation. CD4^+/CD25^− cells were enriched (>90%) by magnetic cell sorting (Miltenyi Biotec) and primed/stimulated for 12-15 days either with irradiated (35Gy) autologous CD4^− cells or with autologous mature DCs in IMDM (GIBCO) supplemented with 1 mM HEPES (Life Technologies), 2 mM L-glutamine (Sigma), […] (Sigma) and 5% heat inactivated pooled human serum (PHS; Valley Biomedical) in the presence of rhIL-2 (10 UI/mL) and IL7 (5 ng/mL) (R&D Systems). Antigen presenting cells (CD4^− cells or DCs) were loaded either with peptides […] or with the MMP-2 protein (10 μg/mL) for 2 and 5 h, respectively. To generate T cell clones, we originally relied on our published methodology (Godefroy et al., 2006; Godefroy et al., 2007; the entire content of each of which is incorporated herein by reference), involving enrichment of IFNγ-secreting cells upon short-term culture and peptide stimulation to generate MMP-2 responsive clones. Briefly, CD4^+ T cells were stimulated by CD4^− cells irradiated and pulsed with peptides for 12 days in the presence of rhIL-2 and rhIL-7. CD4^+ T cells were then restimulated with peptides for 3 hours before capturing IFNγ-secreting specific cells using a bispecific antibody coating T cells and capturing produced IFNγ. Positive cells were purified magnetically before being cloned. Although MMP-2-specific cells could be isolated, it was realized that IFNγ secretion was marginal compared to their secretion of IL-4 and TNFα. IFNγ-secreting cells in response to MMP-2 peptide pool were enriched by cytokine-guided magnetic cell sorting (Miltenyi Biotec) as described above and cloned the following day by limiting dilution in the presence of irradiated allogeneic PBMCs, 1 μg/mL phytohemagglutinin-L (Sigma) and 150 UI/mL rhIL-2. Tumor infiltrating lymphocytes (TILs) were provided by Pr. F. Jotereau and B. Dréno. They were obtained from tumor-invaded lymph nodes of melanoma patients (stage IIIb) and expanded ex vivo. These patients received autologous TILs and IL-2 infusions in a clinical trial (Labarriere et al., 2002). This protocol was approved by the Institutional Ethics Committee and registered with regulatory state authority in France (Nantes).
T-bet and GATA-3 expression was measured on resting T cells. Cells were fixed (4% paraformaldehyde for 10 min at RT), permeabilized with 0.1% saponin, and stained for intracellular transcription factors. Cytokine production by T cells was also assessed by intracellular staining. T cells were stimulated with 2 μM overlapping peptides. After 1 h, 10 μg/mL brefeldin A was added to the cells. […]

[2] = tested on: OX40L; assay: OX40L expression on DCs (staining); format: cell-based, human; conditions: for OX40L expression on DCs: DCs exposed for 2 days, stained for OX40L
Experimental: (§1) A) DCs were exposed to MMP-2 […] or zymosan […], a known activator of NF-κB that acts via TLR2, for the indicated time. Cytosolic and nuclear fractions were isolated and p50 contents were measured by ELISA. […] C) OX40L over-expression on DCs induced by MMP-2 is inhibited by an inhibitor of NEMO, the NEMO binding domain (NBD) peptide, but not by the corresponding negative control, a NBD mutant.
A) DCs were exposed to various TLR agonists for 2 days before cells were stained for OX40L. […] B) TLR2-transfected and engineered HEK cells were incubated with MMP-2 (5 mg/ml) or various controls. All conditions were also tested in the presence of a blocking antibody for TLR2. TNFα was used to activate NF-κB in a TLR-independent manner. Twenty hours later, NF-κB activation was measured.
Antibody to OX40L (11C3.1) was from Biolegend. Blocking antibodies to TLR-2 and TLR-6 were from Invivogen. Antibodies to GATA-3, IL-4 (8D4-8), IL-5 (JES1-39D10), IL-13 (JES10-5A2), TNFα (MAb11), IFNγ (25723.11), perforin (δG9), GranzymeB (GB11), CD40 (5C3), CD80 (L307.4), CD83 (HB15e), CD86 (IT2.2), HLA-DR (TU36), fluorescein isothiocyanate-conjugated antibodies to CD45RA (HI100) and CD45RO (UCHL1), and antibody to CD4 (RPA-T4) were purchased from BD Biosciences Pharmingen. Alexa fluor 488-conjugated antibody to IL-17 (eBio64DEC17), phycoerythrine-conjugated antibody to T-bet (4B10).
(§2) PBMCs were purified from healthy-(HD) or cord blood- (CB) donors and plated at 40×10^6 cells/10 mL/dish in complete IMDM with 5% PHS. Cells were allowed to adhere for 2 h at 37° C. Non-adherent cells were removed. The monocyte-enriched fraction was supplemented with 100 UI/mL rhGMCSF and 300 UI/mL rhIL-4 (R&D Systems) on days 0, 2 and 4. Immature DCs were harvested on day 5 and matured using poly(I:C) at 5 μg/mL/10^6 DCs (Amersham). Secretion of IL-12p70, TNFα, IL-1β, IL-6, IL-8 and IL-10 was assessed on both immature and mature DCs using the Human Inflammatory Cytokine Cytometric Bead Array (BD Pharmingen).

[3] = tested on: bone-marrow-derived DCs; assay: Activation of bone-marrow-derived DCs from wild-type and TLR-deficient mice; format: cell-based, C57/BL6 mice
Experimental: Bone-marrow-derived DCs from wild-type, TLR2^−/−, TLR6^−/− or MyD88^−/− C57/BL6 mice (3 mice pooled/condition) were incubated overnight with 5 μg/ml mMMP-2 or mMMP-9 as well as TLR agonists for controls. TNFα (A) and IL-6 (B) were measured by cytometric bead array analysis. Results are represented as a mean of triplicates±s.d. Two-tailed Student's t-tests were used for specific pairwise comparisons between conditions. p values≦0.05 (*) were considered statistically significant. C) Murine OX40L expression was assessed 2 days later by immunostaining.
Bone-marrow-derived DCs (BM-DCs) were generated and cultured with murine MMP-2 or various controls. […] On the other hand, TLR2^−/− and MyD88^−/− BM-DCs were not activated by MMP-2 (n=3; p<0.02 compared to wild-type mice) (FIG. 9A-C). […] Therefore, MMP-2 induces DCs to produce inflammatory cytokines and to up-regulate OX40L in a TLR2/MyD88-dependent manner.

[4] = tested on: NF-κB pathway; assay: p50 nuclear translocation / NF-κB activation in DCs (ELISA of cytosolic and nuclear fractions); format: cell-based, human
Experimental: as §1, §2
Activation of T cell clones (10,000 cells/100 μL/well), polyclonal T cell populations (100,000 cells/100 μL/well), and DCs (50,000 cells/100 μL/well) can be determined by ELISA. IFNγ (BioSource), TNFα (BioSource), IL-4 (BioSource), IFNβ (VeriKine; PBL interferon source) and MCP-3 (DuoSet; R&D Systems) contents in supernatants were measured according to the manufacturer's instructions. p50 was measured in cytosolic and nuclear fractions (fractions separated using the nuclear separation kit from Active motif) by ELISA (Active motif).

Molecule | recognition as epitope by CD4+ T cell clones [1] | other results
AFNWSKNKKTYIFAGDKFWR (listed as Homo sapiens) [P571-590] | recognized by CD4^+ T cell clones | –
ESCTSAGRSDGKMWCATTAN (listed as Homo sapiens) [P361-380] | recognized by CD4^+ T cell clones | –
FFKGAYYLKLENQSLKSVKF (listed as Homo sapiens) [P631-650] | recognized by CD4^+ T cell clones | –
GCLLSHAAAAPSPIIKFPGD (listed as Homo sapiens) [P21-40] | recognized by CD4^+ T cell clones | –
GFPKLIADAWNAIPDNLDAV (listed as Homo sapiens) [P601-620] | recognized by CD4^+ T cell clones | –
GYPKPLTSLGLPPDVQRVDA (listed as Homo sapiens) [P551-570] | recognized by CD4^+ T cell clones | –
MALP-2 | – | OX40L expression on DCs [2]: induce OX40L on DCs
MEALMARGALTGPLRALCLL (listed as Homo sapiens) [P1-20] | recognized by CD4^+ T cell clones | –
NEMO binding domain (NBD) peptide | – | inhibition of OX40L over-expression on DCs induced by MMP-2 ([2]; DCs, MMP-2-induced): inhibited
Pam3CSK4 | – | OX40L over-expression on TLR-2-transfected HEK cells or DCs ([2]; TLR-2/TLR-1 agonist): did not induce OX40L over-expression
RIHDGEADIMINFGRWEHGD (listed as Homo sapiens) [P161-180] | recognized by CD4^+ T cell clones | –
TGPLRALCLLGCLLSHAAAA (listed as Homo sapiens) [P11-30] | recognized by CD4^+ T cell clones | –
VAPKTDKELAVQYLNTFYGC (listed as Homo sapiens) [P41-60] | recognized by CD4^+ T cell clones | –
VDLQGGGHSYFFKGAYYLKL (listed as Homo sapiens) [P621-640] | recognized by CD4^+ T cell clones | –
murine MMP-2: murine MMP-2 protein, active or inactive | – | activation of bone-marrow-derived DCs ([3]; FIG. 9 summary): activates bone-marrow-derived DCs in a TLR2- and MyD88-dependent manner; activation of TLR2−/− and MyD88−/− BM-DCs ([3]; TLR2−/− and MyD88−/− BM-DCs, n=3): not activated; inflammatory cytokine secretion (TNFα, IL-6) by BM-DCs ([3]; wild-type and TLR6−/− BM-DCs, 5 μg/ml overnight, active or inactive): secreted inflammatory cytokines; OX40L up-regulation on BM-DCs ([3]; wild-type and TLR6−/− BM-DCs, 2 days): up-regulated OX40L
heat-inactivated (HI) MMP-2: MMP-2 enzyme inactivated by heating to 56° C. for 45 min (protein) YNFFPRKPKWDKNQITYRIIGYTPDLDPETVDDAFARAFQVWSDVTPLRFSRIHDGEADIMINFGRWEHGDGYPFDGKDGLLAHAFAPGTGVGGDSHFDDDELWTLGEGQVVRVKYGNADGEYCKFPFLFNGKEYNSCTDTGRSDGFLWCSTTYNFEKDGKYGFCPHEALFTMGGNAEGQPCKFPFRFQGTSYDSCTTEGRTDGYRWCGTTEDYDRDKKYGFCPETAMSTVGGNSEGAPCVFPFTFLGNKYESCTSAGRSDGKMWCATTANYDDDRKWGFCPDQGYSLFLVAAHEFGHAMGLEHSQDPGALMAPIYTYTKNFRLSQDDIKGIQELYGASPDIDLGTGPTPTLGPVTPEICKQDIVFDGIAQIRGEIFFFKDRFIWRTVTPRDKPMGPLLVATFWPELPEKIDAVYEAPQEEKAVFFAGNEYWIYSASTLERGYPKPLTSLGLPPDVQRVDAAFNWSKNKKTYIFAGDKFWRYNEVKKKMDPGFPKLIADAWNAIPDNLDAVVDLQGGGHSYFFKGAYYLKLENQSLKSVKFGSIKSDWLGC | – | p50 translocation in the nucleus ([4]; DCs exposed to MMP-2 (5 μm/ml) or zymosan (10 μm/ml), p50 by ELISA): trigger p50 translocation in the nucleus; NF-κB activation in DCs ([4]; active vs heat-inactivated MMP-2): NF-κB activation (FIGS. 2A, 2B and 3) at similar levels; OX40L expression on DCs [2]: induce OX40L expression

Reference: patent US9539315B2, “Methods, agents and peptides for inhibiting matrix metalloproteinase-2 signaling” (New York University, priority 2011, dated 2017)
